According to patent US6441195B1, “Substituted sulphonylamino(thio) carbonyl compounds” (Bayer Aktiengesellschaft, priority 1995, dated 2002):

What was measured:
Format in all cases: in vivo
weeds [1] = assay: Pre-emergence test (greenhouse), activity against weeds; details: in words
In short: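 Compound formulated in acetone with alkylaryl polyglycol ether emulsifier, diluted in water, and watered onto soil about 24 h after sowing, dosed by application rate per unit area. Damage rated after three weeks as % versus untreated control (0% = no action).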

weeds [2] = assay: Post-emergence test (greenhouse), activity against weeds; details: in words
Protocol: (§1) Solvent: 5 parts by weight of acetone
(§2) Emulsifier: 1 part by weight of alkylaryl polyglycol ether
(§3) To produce a suitable preparation of active compound, 1 part by weight of active compound is mixed with the stated amount of solvent, the stated amount of emulsifier is added and the concentrate is diluted with water to the desired concentration.
(§4) Test plants which have a height of 5-15 cm are sprayed with the preparation of the active compound in such a way as to apply the particular amounts of active compound desired per unit area. The concentration of the spray liquor is chosen so that the particular amounts of active compound desired are applied in 2000 l of water/ha.
(§5) After three weeks, the degree of damage to the plants is rated in % damage in comparison to the development of the untreated control.
(§6) 0%=no action (like untreated control)

Digitaria = assay: Post-emergence test/greenhouse, Digitaria; details: greenhouse, after three weeks
Protocol: as §1, §2, §3, §4, §5, §6

Echinochloa = assay: Post-emergence test/greenhouse, Echinochloa; details: greenhouse, after three weeks
Protocol: as §1, §2, §3, §4, §5, §6

Lolium [3] = assay: Post-emergence test/greenhouse, Lolium; details: greenhouse, after three weeks
Protocol: as §1, §2, §3, §4, §5, §6

Sorghum [4] = assay: Post-emergence test/greenhouse, Sorghum; details: greenhouse, after three weeks
Protocol: as §1, §2, §3, §4, §5, §6

Amaranthus = assay: Post-emergence test/greenhouse, Amaranthus; details: greenhouse, after three weeks
Protocol: as §1, §2, §3, §4, §5, §6

Gallium = assay: Post-emergence test/greenhouse, Gallium; details: greenhouse, after three weeks
Protocol: as §1, §2, §3, §4, §5, §6

Matricaria [5] = assay: Post-emergence test/greenhouse, Matricaria; details: greenhouse, after three weeks
Protocol: as §1, §2, §3, §4, §5, §6

Stellaria = assay: Post-emergence test/greenhouse, Stellaria; details: greenhouse, after three weeks
Protocol: as §1, §2, §3, §4, §5, §6

Maize [6] = assay: Pre-emergence test/Greenhouse, Maize; details: in vivo
In short: (§7)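 Percent damage relative to untreated control plants, scored three weeks after treatment, is the read-out (0% meaning no effect). Treatment consisted of watering the soil with an emulsified aqueous preparation roughly 24 h after seeds were sown, at constant water volume per area.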

Soya beans = assay: Pre-emergence test/Greenhouse, Soya beans; details: in vivo
In short: as §7

Lolium [7] = assay: Pre-emergence test/Greenhouse, Lolium; details: after three weeks
In short: as §7

Poa = assay: Pre-emergence test/Greenhouse, Poa; details: after three weeks
In short: as §7

Sorghum [8] = assay: Pre-emergence test/Greenhouse, Sorghum; details: after three weeks
In short: as §7

Ambrosia = assay: Pre-emergence test/Greenhouse, Ambrosia; details: after three weeks
In short: as §7

Matricaria [9] = assay: Pre-emergence test/Greenhouse, Matricaria; details: after three weeks
In short: as §7

Solanum = assay: Pre-emergence test/Greenhouse, Solanum; details: after three weeks
In short: as §7

Maize [10] = assay: Post-emergence test/greenhouse, Maize; details: greenhouse, 60 g of ai./ha, after three weeks
Protocol: as §1, §2, §3, §4, §5, §6

Row | Structure (SMILES) | activity against weeds (weeds [1]) | activity against weeds (weeds [2]) | degree of damage, Digitaria (Digitaria; 60 g of ai./ha) | degree of damage, Echinochloa (Echinochloa; 60 g of ai./ha) | degree of damage, Lolium (Lolium [3]; 60 g of ai./ha) | degree of damage, Sorghum (Sorghum [4]; 60 g of ai./ha) | degree of damage, Amaranthus (Amaranthus; 60 g of ai./ha) | degree of damage, Gallium (Gallium; 60 g of ai./ha) | degree of damage, Matricaria (Matricaria [5]; 60 g of ai./ha) | degree of damage, Stellaria (Stellaria; 60 g of ai./ha) | degree of damage to the plants (% damage vs untreated control), Maize (Maize [6]) | degree of damage to the plants (% damage vs untreated control), Soya beans (Soya beans) | degree of damage to the plants (% damage vs untreated control), Lolium (Lolium [7]; 60 g of ai./ha) | degree of damage to the plants (% damage vs untreated control), Poa (Poa; 60 g of ai./ha) | degree of damage to the plants (% damage vs untreated control), Sorghum (Sorghum [8]; 60 g of ai./ha) | degree of damage to the plants (% damage vs untreated control), Ambrosia (Ambrosia; 60 g of ai./ha) | degree of damage to the plants (% damage vs untreated control), Matricaria (Matricaria [9]; 60 g of ai./ha) | degree of damage to the plants (% damage vs untreated control), Solanum (Solanum; 60 g of ai./ha) | other results
1 | COC(=O)c1cccc(C)c1S(=O)(=O)NC(=O)n1nc(OC)n(C2CC2)c1=O [Example 164] | very strong activity against weeds | very strong activity against weeds | 60% | 80% | 70% | 95% | 100% | 90% | 100% | 95% | 20% | 0% | – | – | – | – | – | – | degree of damage to the plants (% damage vs untreated control), Lolium (Lolium [7]; 8 g of ai./ha): 95%; degree of damage to the plants (% damage vs untreated control), Poa (Poa; 8 g of ai./ha): 95%; degree of damage to the plants (% damage vs untreated control), Sorghum (Sorghum [8]; 8 g of ai./ha): 90%; degree of damage to the plants (% damage vs untreated control), Ambrosia (Ambrosia; 8 g of ai./ha): 100%; degree of damage to the plants (% damage vs untreated control), Matricaria (Matricaria [9]; 8 g of ai./ha): 70%; degree of damage to the plants (% damage vs untreated control), Solanum (Solanum; 8 g of ai./ha): 95%
2 | CCCOc1nn(C(=O)NS(=O)(=O)c2c(C)cccc2C(=O)OC)c(=O)n1C [Example 140] | very strong activity against weeds | very strong activity against weeds | – | – | – | – | – | – | – | – | – | 10% | – | – | – | – | – | – | degree of damage, Digitaria (Digitaria; 250 g of ai./ha): 95%; degree of damage, Echinochloa (Echinochloa; 250 g of ai./ha): 90%; degree of damage, Sorghum (Sorghum [4]; 250 g of ai./ha): 95%; degree of damage, Amaranthus (Amaranthus; 250 g of ai./ha): 100%; degree of damage, Gallium (Gallium; 250 g of ai./ha): 95%; degree of damage, Matricaria (Matricaria [5]; 250 g of ai./ha): 90%; degree of damage, Stellaria (Stellaria; 250 g of ai./ha): 70%; degree of damage to the plants (% damage vs untreated control), Poa (Poa; 30 g of ai./ha): 95%; degree of damage to the plants (% damage vs untreated control), Sorghum (Sorghum [8]; 30 g of ai./ha): 95%; degree of damage to the plants (% damage vs untreated control), Ambrosia (Ambrosia; 30 g of ai./ha): 80%; degree of damage to the plants (% damage vs untreated control), Matricaria (Matricaria [9]; 30 g of ai./ha): 80%; degree of damage to the plants (% damage vs untreated control), Solanum (Solanum; 30 g of ai./ha): 95%
3 | CCOn1c(CC)nn(C(=O)NS(=O)(=O)c2c(C)csc2C(=O)OC)c1=O [Example 38] | very strong activity against weeds | very strong activity against weeds | 70% | 90% | – | 95% | 100% | – | 95% | 95% | 0% | – | 95% | 70% | 60% | 95% | 95% | 95% | degree of damage, Maize (Maize [10]): 10%
4 | CCCOc1nn(C(=O)NS(=O)(=O)c2c(C)cccc2C(=O)OC)c(=O)n1C1CC1 [Example 165] | very strong activity against weeds | very strong activity against weeds | 50% | 80% | 50% | 90% | 95% | 95% | 95% | 95% | 0% | 10% | – | – | – | – | – | – | degree of damage to the plants (% damage vs untreated control), Poa (Poa; 8 g of ai./ha): 90%; degree of damage to the plants (% damage vs untreated control), Sorghum (Sorghum [8]; 8 g of ai./ha): 70%; degree of damage to the plants (% damage vs untreated control), Ambrosia (Ambrosia; 8 g of ai./ha): 80%; degree of damage to the plants (% damage vs untreated control), Matricaria (Matricaria [9]; 8 g of ai./ha): 90%; degree of damage to the plants (% damage vs untreated control), Solanum (Solanum; 8 g of ai./ha): 80%
5 | CCCOc1nn(C(=O)[N-]S(=O)(=O)c2c(C)cccc2C(=O)OC)c(=O)n1C.[Na+] [Example 144] | very strong activity against weeds | very strong activity against weeds | – | – | – | – | – | – | – | – | – | – | – | – | – | – | – | – | degree of damage, Digitaria (Digitaria; 250 g of ai./ha): 95%; degree of damage, Echinochloa (Echinochloa; 250 g of ai./ha): 95%; degree of damage, Lolium (Lolium [3]; 250 g of ai./ha): 70%; degree of damage, Sorghum (Sorghum [4]; 250 g of ai./ha): 95%; degree of damage, Amaranthus (Amaranthus; 250 g of ai./ha): 100%; degree of damage, Gallium (Gallium; 250 g of ai./ha): 95%; degree of damage, Matricaria (Matricaria [5]; 250 g of ai./ha): 70%; degree of damage, Stellaria (Stellaria; 250 g of ai./ha): 95%; degree of damage to the plants (% damage vs untreated control), Lolium (Lolium [7]; 125 g of ai./ha): 90%; degree of damage to the plants (% damage vs untreated control), Poa (Poa; 125 g of ai./ha): 90%; degree of damage to the plants (% damage vs untreated control), Sorghum (Sorghum [8]; 125 g of ai./ha): 95%; degree of damage to the plants (% damage vs untreated control), Ambrosia (Ambrosia; 125 g of ai./ha): 80%; degree of damage to the plants (% damage vs untreated control), Matricaria (Matricaria [9]; 125 g of ai./ha): 95%; degree of damage to the plants (% damage vs untreated control), Solanum (Solanum; 125 g of ai./ha): 95%
6 | CCOC(=O)c1scc(C)c1S(=O)(=O)NC(=O)n1nc(OCC)n(C2CC2)c1=O [Example 63] | very strong activity against weeds | very strong activity against weeds | 50% | 90% | 70% | 80% | 100% | 90% | 95% | 100% | 10% | – | 100% | 95% | 80% | 100% | 100% | 100% | –
7 | CCSc1nn(C(=O)NS(=O)(=O)c2c(C)cccc2C(=O)OC)c(=O)n1C1CC1 [Example 159] | very strong activity against weeds | very strong activity against weeds | 60% | 80% | 60% | 70% | 95% | 95% | 100% | 100% | 10% | – | – | – | – | – | – | – | degree of damage to the plants (% damage vs untreated control), Lolium (Lolium [7]; 30 g of ai./ha): 90%; degree of damage to the plants (% damage vs untreated control), Poa (Poa; 30 g of ai./ha): 95%; degree of damage to the plants (% damage vs untreated control), Sorghum (Sorghum [8]; 30 g of ai./ha): 60%; degree of damage to the plants (% damage vs untreated control), Ambrosia (Ambrosia; 30 g of ai./ha): 95%; degree of damage to the plants (% damage vs untreated control), Matricaria (Matricaria [9]; 30 g of ai./ha): 95%; degree of damage to the plants (% damage vs untreated control), Solanum (Solanum; 30 g of ai./ha): 95%
8 | COC(=O)c1cccc(C)c1S(=O)(=O)NC(=O)n1nc(OC)n(C)c1=O [Example 162] | very strong activity against weeds | very strong activity against weeds | 70% | 80% | 90% | 80% | – | – | 60% | 90% | – | 0% | 95% | 95% | 90% | 80% | 95% | 95% | –
9 | COC(=O)c1cccc(C)c1S(=O)(=O)NC(=O)n1nc(OC(C)C)n(C2CC2)c1=O [Example 166] | very strong activity against weeds | very strong activity against weeds | 70% | 70% | 50% | 90% | 95% | 95% | 100% | 95% | 40% | – | – | – | – | – | – | – | degree of damage to the plants (% damage vs untreated control), Lolium (Lolium [7]; 15 g of ai./ha): 90%; degree of damage to the plants (% damage vs untreated control), Poa (Poa; 15 g of ai./ha): 90%; degree of damage to the plants (% damage vs untreated control), Sorghum (Sorghum [8]; 15 g of ai./ha): 70%; degree of damage to the plants (% damage vs untreated control), Ambrosia (Ambrosia; 15 g of ai./ha): 80%; degree of damage to the plants (% damage vs untreated control), Matricaria (Matricaria [9]; 15 g of ai./ha): 95%; degree of damage to the plants (% damage vs untreated control), Solanum (Solanum; 15 g of ai./ha): 90%
